The RepoRT retention time repository (doi:10.1021/acs.analchem.1c00972)

Experiment: RP, Waters ACQUITY UPLC BEH C18, 100 × 1 mm, 1.7 µm, 50 °C, 0.3 mL/min, estimated dead time 0.17 min; A: water + 10 mM ammonium bicarbonate; B: 10% water + 90% methanol + 10 mM ammonium bicarbonate; gradient (min/%B) 0/0 15/100 21/100 22/0 30/0
Conditions: stereoisomer not certain

Row | SMILES | LC retention time
1 | CNC(=O)Oc1cccc2c1OC(C)(C)O2 [Bendiocarb] | 11.9 min
2 | CC(COc1ccc(Oc2ccccc2)cc1)Oc1ccccn1 (stereo not drawn) [Pyriproxyfen] | 17.4 min
3 | Cc1cc(C(C)(C)C)c(O)c(C(C)(C)C)c1 [2,6-Di-tert.-butyl-4-methylphenol] | 18.1 min
4 | FC(F)C(F)(F)OCC(Cn1cncn1)c1ccc(Cl)cc1Cl (stereo not drawn) [Tetraconazole] | 15.3 min
5 | Cc1cccc(C)c1O [2,6-Dimethylphenol] | 12 min
6 | N#CC(CCc1ccc(Cl)cc1)(Cn1cncn1)c1ccccc1 (stereo not drawn) [Fenbuconazole] | 15.5 min
7 | CCOP(=S)(OCC)SCSP(=S)(OCC)OCC [Ethion] | 17.3 min
8 | O=P(OCCCCl)(OCCCCl)OCCCCl [Tris(3-chloropropyl) phosphate] | 14.6 min
9 | Cc1ccccc1N=C=O [o-Tolyl isocyanate] | 8.18 min
10 | Cc1cc(C)nc(NS(=O)(=O)c2ccc(N)cc2)n1 [Sulfamethazine] | 7.4 min
11 | NS(=O)(=O)c1cc(C2(O)NC(=O)c3ccccc32)ccc1Cl (stereo not drawn) [Chlorthalidon] | 9.67 min
12 | C=CC1C(OC2OC(CO)C(O)C(O)C2O)OC=C2C(=O)OCCC21 (stereo not drawn) [Sweroside] | 8.69 min
13 | Cc1cc(Cl)ccc1N [4-Chloro-2-methylaniline] | 12.3 min
14 | Nc1cccc(Cl)c1 [3-Chloroaniline] | 10.6 min
15 | CCNc1nc(NCC)nc(OC)n1 [Simeton] | 11.6 min
16 | CCNc1nc(NC(C)(C)C)nc(OC)n1 [Terbumeton] | 14.3 min
17 | CC12CCC(=O)C=C1CCC1C2CCC2(C)C(O)CCC12 (stereo not drawn) [Testosterone] | 14.6 min
18 | CC1(c2ccc(Oc3ccccc3)cc2)OC(=O)N(Nc2ccccc2)C1=O (stereo not drawn) [Famoxadone] | 16.1 min
19 | Nc1ccn(C2OC(CO)C(O)C2(F)F)c(=O)n1 (stereo not drawn) [Gemcitabine] | 3.38 min
20 | CC(=O)Nc1ccc(O)cc1 [Acetaminophen] | 5.35 min
21 | COP(=O)(OC)OC(C)=CC(=O)N(C)C [Dicrotophos] | 8.69 min
22 | CNC(C)C(O)c1ccccc1 (stereo not drawn) [Ephedrine] | 13.1 min
23 | Oc1ccc(C=Cc2cc(O)cc(O)c2)cc1 [Resveratrol] | 15.4 min
24 | Nc1ccccc1Cl [2-Chloroaniline] | 10.6 min
25 | COC(=O)c1ccccc1S(N)(=O)=O [Methyl 2-(aminosulfonyl)benzoate] | 8.1 min
26 | O=C(O)C=Cc1ccccc1O [2-Hydroxycinnamic acid] | 5 min
27 | Cc1c(NC=O)c(=O)n(-c2ccccc2)n1C [N-Formyl-4-aminoantipyrine] | 7.81 min
28 | C#CC1(O)CCC2C3CCc4cc(OC)ccc4C3CCC21C (stereo not drawn) [Mestranol] | 14.3 min

Experiment: RP, Waters ACQUITY UPLC BEH C18, 100 × 1 mm, 1.7 µm, 50 °C, 0.3 mL/min, estimated dead time 0.17 min; A: water + 0.1% formic acid + 20 mM ammonium formate; B: methanol + 0.1% formic acid + 20 mM ammonium formate; gradient (min/%B) 0/0 15/100 21/100 22/0 30/0
Conditions: stereoisomer not certain

Row | LC retention time | SMILES
29 | 10.1 min | CCOc1ccccc1C(N)=O [2-Ethoxybenzamide]
30 | 14 min | CCNC(=O)C(C)Oc1cccc2ccccc12 (stereo not drawn) [Desethyl-napropamide]
31 | 8.54 min | CC(C)NC(=O)NC(C)C [1.3-Diisopropylurea]
32 | 8.24 min | Nc1ccc2nc3c(N)cccc3nc2c1 [1,7-Diaminophenazine]
33 | 9.89 min | Cc1ccc2n[nH]nc2c1 [5-Methyl-1-H-benzotriazol]
34 | 11.8 min | CCc1cccc(CC)c1N(COC)C(=O)CS(=O)(=O)O [Alachlor tert-sulfonic acid (ESA)]
35 | 19.6 min | CCCCCCCCC=CCCCCCCCCCCCC(N)=O [Erucamide]
36 | 14.5 min | CC(C)OC(=O)NC(C(=O)NC(C)c1nc2ccc(F)cc2s1)C(C)C (stereo not drawn) [Benthiavalicarb-Isopropyl]
37 | 8.28 min | COCCOCCOCCOC [Triglyme]
38 | 8.03 min | COc1ccc(NS(=O)(=O)c2ccc(N)cc2)nn1 [Sulfamethoxypyridazin]
39 | 8.7 min | NC(Cc1ccccc1)C(=O)N1CCCC1C(=O)O (stereo not drawn) [Phe-Pro]
40 | 2.02 min | O=C(O)Cc1c(Cl)ccc(Cl)c1Cl [Chlorfenac]
41 | 10.8 min | c1ccc2scnc2c1 [Benzothiazole]
42 | 11.2 min | Cc1cc2n[nH]nc2cc1C [5,6-Dimethyl-1,1,1-benzotriazol]
43 | 8.04 min | Cc1cn(C2CC(N=[N+]=[N-])C(CO)O2)c(=O)[nH]c1=O (stereo not drawn) [Zidovudine]
44 | 11.8 min | CNC(=O)N(C)c1nnc(C(F)(F)F)s1 [Thiazafluron]
45 | 15.4 min | Cn1cc(C(=O)Nc2ccc(F)cc2-c2ccc(Cl)c(Cl)c2)c(C(F)F)n1 [Bixafen]
46 | 10.6 min | CCCCN1CCCCC1C(=O)Nc1c(C)cccc1C (stereo not drawn) [Bupivacaine]

Row | LC retention time | SMILES
47 | 14.5 min | CC(C)=CCc1c(O)cc(O)c2c1OC(c1ccc(O)cc1)CC2=O (stereo not drawn) [8-Prenylnaringenin]
48 | 11.8 min | [O-][n+]1nc(-n2ccnc2)nc2ccc(Cl)cc21 [Triazoxide]
49 | 14.9 min | Cc1cc(C2CCCCC2)n(O)c(=O)c1 [Ciclopirox]
50 | 18.1 min | O=C1CCCC=CCCCCCCCCCC1 [Velvione]
51 | 7.87 min | Nc1nc(N)nc(-c2ccccc2)n1 [Benzoguanamine]
52 | 14.4 min | O=C(NCc1ncc(C(F)(F)F)cc1Cl)c1c(Cl)cccc1Cl [Fluopicolide]
53 | 11.5 min | CN(C)CCC=C1c2ccccc2COc2ccc(CC(=O)O)cc21 [Olopatadine]
54 | 3.6 min | Nc1cc(Cl)c(S(N)(=O)=O)cc1S(N)(=O)=O [4-Amino-6-chloro-1,3-benzenedisulfonamide]
55 | 2.6 min | NC(Cc1cnc[nH]1)C(=O)N1CCCC1C(=O)O (stereo not drawn) [His-Pro]
56 | 12.4 min | CC12C=CC(=O)C=C1CCC1C2C(O)CC2(C)C1CCC2(O)C(=O)CO (stereo not drawn) [Prednisolone]
57 | 6.3 min | NC(Cc1c[nH]c2ccccc12)C(=O)O (stereo not drawn) [tryptophan]
58 | 2.02 min | CC1(C)CC(N)CC(C)(CN)C1 (stereo not drawn) [Isophorone diamine]
59 | 11.5 min | CCOC(=O)C1=CC(OC(CC)CC)C(NC(C)=O)C(N)C1 (stereo not drawn) [Oseltamivir]
60 | 2.59 min | Nc1ccc(F)cc1 [Picolinafen-Fluoroaniline]
61 | 17.1 min | CC(CCC(=O)O)C1CCC2C3C(O)CC4CC(O)CCC4(C)C3CCC12C (stereo not drawn) [Chenodeoxycholic acid]
62 | 11.5 min | O=[N+]([O-])c1ccc(C2OC2c2ccc([N+](=O)[O-])cc2S(=O)(=O)O)c(S(=O)(=O)O)c1 (stereo not drawn)
63 | 13.2 min | CNCCC(Oc1ccc(C(F)(F)F)cc1)c1ccccc1 (stereo not drawn) [Fluoxetine]

Row | SMILES | LC retention time
64 | COc1ccc2c3c1OC1C(OC4OC(C(=O)O)C(O)C(O)C4O)C=CC4C(C2)N(C)CCC341 (stereo not drawn) [codeine-6-glucuronide] | 11.4 min
65 | CCOP(=S)(OCC)SCCSCC [Disulfoton] | 16 min
66 | COP(=S)(NC(C)C)Oc1ccccc1C(=O)OC(C)C (stereo not drawn) [Isofenphos-methyl] | 15.5 min
67 | Nc1ccc(Cl)cc1Cl [2,4-Dichloroaniline] | 17.6 min
68 | CC(C)=NOCCOC(=O)C(C)Oc1ccc(Oc2cnc3cc(Cl)ccc3n2)cc1 (stereo not drawn) [Propaquizafop] | 16.8 min
69 | CC(C)(C)C(=O)C(Oc1ccc(Cl)cc1)n1cncn1 (stereo not drawn) [Triadimefon] | 14.5 min
70 | COCCOCCO [Diethyleneglycolmonomethylether] | 5.03 min
71 | CC1CC(O)C2(O)C13CC(OC(=O)C3O)C(C)(O)C21COC1=O (stereo not drawn) [Anisatin] | 7.91 min
72 | COCCOC(=O)c1ccccc1C(=O)OCCOC [Bis(2-methoxyethyl)phthalate] | 12.3 min
73 | CSc1nc(NC(C)C)nc(NC(C)C)n1 [Prometryne] | 14.2 min
74 | CC(=O)OC1C(=O)C2(C)C(O)CC3OCC3(OC(C)=O)C2C(OC(=O)c2ccccc2)C2(O)CC(O)C(C)=C1C2(C)C (stereo not drawn) [Baccatin III] | 12.5 min
75 | CC1OC(OC2CCC3(C=O)C4CCC5(C)C(C6=CC(=O)OC6)CCC5(O)C4CCC3(O)C2)C(O)C(O)C1O (stereo not drawn) [Convallatoxin] | 11.2 min
76 | CCCCC(O)(Cn1cncn1)c1ccc(Cl)cc1Cl (stereo not drawn) [Hexaconazole] | 15.9 min
77 | O=C(OC1CC2CCC(C1)[N+]21CCCC1)C(O)(c1ccccc1)c1ccccc1 (stereo not drawn) [Trospium] | 14.2 min
78 | O=P(O)(O)CCCl [Ethephon] | 2.01 min
79 | Cc1ccc(OP(=O)(Oc2ccccc2)Oc2ccccc2)cc1 [Diphenyltolyl phosphate] | 16.3 min
80 | CCOC(=O)C1(c2ccccc2)CCC=CC1N(C)C (stereo not drawn) [Tilidine] | 9.57 min
81 | Cc1ccccc1C(=O)Nc1cccc(OC(C)C)c1 [Mepronil] | 14.4 min
82 | COC(=O)C(C)=COP(=S)(OC)OC [Methacrifos] | 12.1 min
83 | CCCCCCOC(=O)c1ccccc1C(=O)OCCCCCC [Dihexylphthalate] | 18.2 min
84 | Cc1ccccc1OP(=O)(Oc1ccccc1C)Oc1ccccc1C [Tris(2-methylphenyl) phosphate (tri-o-cresyl phosphate)] | 17 min
85 | CCCSP(=O)(OCC)SCCC [Ethoprophos] | 15 min
86 | COP(=O)(OC)OC [Trimethyl phosphate] | 6.17 min
87 | CCc1cc(C)cc(CC)c1-c1c(OC(=O)C(C)(C)C)n2n(c1=O)CCOCC2 [Pinoxaden] | 10.5 min
88 | CC12CCC(=O)C=C1CCC1C2CCC2(C)C(OC3OC(C(=O)O)C(O)C(O)C3O)CCC12 (stereo not drawn) [testosterone_glucuronide] | 13.6 min
